Assay [1] has as its target T1, hCB1R (Homo sapiens, UniProt P21554). Kind of assay: Binding to the CB1 receptor ([3H]-SR141716A displacement, CHO-K1/cannabinoid CB1 protein). On the set-up: expressed in transfected cells. The protocol: Test compounds: The compounds (3 μl, 10 mM, 100% DMSO), pipetted into 96-well PP microtiter plates, were diluted with 27 μl of 100% DMSO (dimethyl sulfoxide). Proceeding from this solution, further 3-fold dilution steps were undertaken by transferring 10 μl in each case to a new PP microtiter plate and adding a further 20 μl of 100% DMSO. In each case 6 μl of these solutions were transferred into new 96-well PP microtiter plates and made up with 144 μl of assay buffer. The end concentrations ranged from 10 μM to 0.005 μM.
Negative control: AM 251, dissolved in assay buffer with 1% DMSO, was added to the dilution series in the microtiter plates as a control. The end concentration was 1 μM.
Blank control: assay buffer with 1% DMSO was added to the dilution series of the microtiter plates as a blank control.
The values were calculated using the corrected raw data.
The values reported were obtained as average values of a double determination. The IC50 values were calculated from the measurements with the program Xlfit, formula 205. Ki values were obtained from the IC50 and Kd values utilizing the Cheng-Prusoff equation: […]
Literature: Cheng, Y.-C., and Prusoff, W. H. (1973) Biochem. Pharmacol 22, 3099-3108 Results: Ki values of example compounds;

The target in another assay is T2, hCB2R (Homo sapiens, UniProt P34972).
T2 construct: expressed in transfected cells; host or cells: HEK293
T2 sequence (P34972 whole entry): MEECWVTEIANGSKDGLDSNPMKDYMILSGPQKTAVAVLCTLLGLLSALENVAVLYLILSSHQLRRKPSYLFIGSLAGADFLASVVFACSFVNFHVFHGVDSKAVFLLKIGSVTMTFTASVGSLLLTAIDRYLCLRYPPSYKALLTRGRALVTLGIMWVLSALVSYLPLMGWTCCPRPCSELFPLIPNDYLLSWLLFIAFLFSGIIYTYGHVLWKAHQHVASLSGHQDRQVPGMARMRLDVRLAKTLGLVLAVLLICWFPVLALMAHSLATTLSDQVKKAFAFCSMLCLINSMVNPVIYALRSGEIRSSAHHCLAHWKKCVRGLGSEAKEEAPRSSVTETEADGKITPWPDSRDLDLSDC
The assay can be described thus: In vitro functional FLIPR assay with recombinant HEK293 cells, cannabinoid 2 receptor. It is filed as cell-based. The settings on record: recombinant HEK293 cells expressing CB2 and Galpha16; Ca2+ change vs reference agonist. The procedure: (§1) Function-testing assays were performed by means of the FLIPR technique (“Fluorometric Imaging Plate Reader”, Molecular Devices Corp.).
(§2) To this end, ligand-induced changes in the intracellular concentration of Ca^2+ in recombinant HEK293 cells, which expressed both a cannabinoid receptor (CB1 or CB2) and G-protein Galpha16, were determined. For the studies, cells were sown into 96-well microtiter plates (60 000 cells/well) and left to grow overnight. The medium was removed and the cells were incubated in buffer which contained the fluorescent dye Fluo-4. After this loading with dye, the cells were washed, test substance was added dissolved in buffer, the mixture was incubated for 20 minutes, a known cannabinoid receptor agonist as a reference agonist was added in buffer and, finally, the changes in the intracellular Ca^2+ concentration were measured in the FLIPR unit.
(§3) Results were presented as the percentage change relative to the control (0%: analogous experiment without test substance and without reference agonist, i.e. only with buffer; 100%: analogous experiment without test substance, but with reference agonist in excess), and used to calculate dose/action curves, and IC50 values were determined.

The target of assay [2] is T1, hCB1R. The assay can be described thus: In vitro functional FLIPR assay with recombinant HEK293 cells, cannabinoid 1 receptor. The class given is cell-based. On the set-up: expressed in transfected cells; host or cells: HEK293. The note with it: recombinant HEK293 cells expressing CB1 and Galpha16; Ca2+ change vs reference agonist. The procedure: as §1, §2, §3
[3] abbreviates: [3H]-SR141716A 0.5 nM, Ki from IC50 by Cheng-Prusoff, average of double determination, read-out: hCB1R, binding Ki.

Like-named read-outs stand apart in the source and are kept apart here.

T1 sequence (P21554 whole entry): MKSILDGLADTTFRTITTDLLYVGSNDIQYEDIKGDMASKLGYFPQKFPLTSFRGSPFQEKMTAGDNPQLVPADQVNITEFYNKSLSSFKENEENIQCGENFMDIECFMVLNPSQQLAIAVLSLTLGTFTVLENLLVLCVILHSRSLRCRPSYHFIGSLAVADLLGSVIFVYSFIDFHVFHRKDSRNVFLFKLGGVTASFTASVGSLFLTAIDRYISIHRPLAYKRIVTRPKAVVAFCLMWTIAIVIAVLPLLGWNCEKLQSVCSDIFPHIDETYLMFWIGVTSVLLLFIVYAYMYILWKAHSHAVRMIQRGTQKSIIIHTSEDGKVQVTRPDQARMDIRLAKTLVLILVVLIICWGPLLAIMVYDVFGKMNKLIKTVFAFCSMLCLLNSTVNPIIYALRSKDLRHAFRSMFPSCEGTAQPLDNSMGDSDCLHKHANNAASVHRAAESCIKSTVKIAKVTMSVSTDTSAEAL

Turning to `CC1(C)C(=O)N(c2cccc(C(F)(F)F)c2)C(=O)N1Cc1ccccc1Oc1ccccc1` [Example 8], the Ki at hCB1R [1] (setting [3]) was 249 nM.

With `CC1(C)C(=O)N(c2cc(C(F)(F)F)ccc2F)C(=O)N1Cc1ccccc1Oc1ccccc1` [Example 12], the Ki at hCB1R [1] (setting [3]) is 284 nM. The same measure, in the same setting: for `CC1(C)C(=O)N(c2cccc(SC(F)(F)F)c2)C(=O)N1Cc1ccccc1Oc1ccccc1` [Example 14] the value was 289 nM. Broadly, the IC50 is the midpoint of a concentration-inhibition curve. As to `CC1(C)C(=O)N(c2ccnc(Cl)c2)C(=O)N1Cc1ccccc1Oc1ccccc1` [Example 82], the IC50 was over 10000 nM on hCB2R and 100 nM on hCB1R [2]. In addition, at hCB1R [1] (setting [3]), the Ki was 2 nM. On to `CC1(C)C(=O)N(c2ccnc(C(F)(F)F)c2)C(=O)N1Cc1ccccc1Oc1ccccc1` [Example 83], for which the Ki at hCB1R [1] (setting [3]) worked out at 24 nM.

For the compound `CC1(C)C(=O)N(c2ccc(C#N)nc2)C(=O)N1Cc1ccccc1Oc1ccccc1` [Example 86], the Ki at hCB1R [1] (setting [3]) came to 311 nM. As to `COC(=O)c1ccc(Oc2ccccc2CN2C(=O)N(c3ccc(C#N)c(C(F)(F)F)c3)C(=O)C2(C)C)cc1` [Example 96], on hCB1R [1], the Ki turned out to be 22 nM. The IC50 at hCB1R [2] was 152 nM. Take `CC1(C)C(=O)N(c2ccc(C#N)c(C(F)(F)F)c2)C(=O)N1Cc1ccccc1Oc1ccc(C(=O)O)cc1` [Example 97, 4-{2-[3-(4-Cyano-3-trifluoromethylphenyl)-5,5-dimethyl-2,4-dioxo-imidazolidin-1-ylmethyl]phenoxy}benzoic acid]: the half-maximal inhibitory concentration (IC50) at hCB2R is over 10000 nM. The Ki at hCB1R [1] (setting [3]) is 533 nM. On to `CC1(C)C(=O)N(c2ccc(C#N)c(C(F)(F)F)c2)C(=O)N1Cc1ccccc1Oc1ccc(C(N)=O)cc1` [Example 98, 4-{2-[3-(4-Cyano-3-trifluoromethylphenyl)-5,5-dimethyl-2,4-dioxo-imidazolidin-1-ylmethyl]phenoxy}benzamide], for which the half-inhibitory concentration (IC50) at hCB2R was over 10000 nM; at hCB1R [2], 507 nM. As to `CC1(C)C(=O)N(c2ccc(C#N)c(C(F)(F)F)c2)C(=O)N1Cc1ccccc1Sc1ccc(Cl)cc1` [Example 105, 4-{3-[2-(4-Chlorophenylsulfanyl)benzyl]-4,4-dimethyl-2,5-dioxoimidazolidin-1-yl}-2-trifluoromethylbenzonitrile], the IC50 on hCB2R was over 10000 nM. The compound also displayed a Ki on hCB1R [1] of 44 nM. Take `CC1(C)C(=O)N(c2ccc(C#N)c(C(F)(F)F)c2)C(=O)N1Cc1ccccc1[S+]([O-])c1ccc(Cl)cc1` (centres unmarked) [Example 107, 4-{3-[2-(4-Chlorobenzenesulfinyl)benzyl]-4,4-dimethyl-2,5-dioxoimidazolidin-1-yl}-2-trifluoromethylbenzonitrile]: the Ki on hCB1R [1] (setting [3]) amounted to 232 nM.

The values are drawn from patent publication US20110046185A1, “Arylchalcogenoarylalkyl-substituted imidazolidine-2,4-diones, process for preparation thereof, medicaments comprising these compounds and use thereof” (SANOFI-AVENTIS, priority 2008, published 2011).
